Measurements taken from ChEMBL document CHEMBL1914318, “Anti-hepatocellular carcinoma activity using human HepG2 cells and hepatotoxicity of 6-substituted methyl 3-aminothieno[3,2-b]pyridine-2-carboxylate derivatives: in vitro evaluation, cell cycle analysis and QSAR studies” (Eur J Med Chem, 2011).
Active and inactive are the calls of the source. The calls are words filed in the database; no cut-off is given here.

Legend:
[1] = Growth inhibition of porcine primary hepatocytes after 72 hrs by SRB assay; assay type: cell-based, Sus scrofa, Hepatocyte; settings: pig
HepG2 [2] = test: Growth inhibition of human HepG2 cells after 72 hrs by SRB assay; assay type: functional; settings: HepG2, 72 h
HepG2 [3] = test: Induction of cell cycle arrest in human HepG2 cells assessed as increase in sub-G1 peak at 4.1 uM after 72 hrs by propidium iodide staining-based flow cytometric analysis; assay type: functional
HepG2 [4] = test: Induction of cell cycle arrest in human HepG2 cells assessed as increase in DNA content at G2/M phase at 4.1 uM after 72 hrs by propidium iodide staining-based flow cytometric analysis; assay type: functional
HepG2 [5] = test: Induction of cell cycle arrest in human HepG2 cells assessed as decrease in DNA content at S phase at 4.1 uM after 72 hrs by propidium iodide staining-based flow cytometric analysis; assay type: functional

| SMILES | GI50 (HepG2 [2]) [µM] | GI50 at 72 h [1] [µM] | Activity (HepG2 [3]) | Activity (HepG2 [4]) | Activity (HepG2 [5]) |
| --- | --- | --- | --- | --- | --- |
| COC(=O)c1sc2cc(-c3cnc4ccccc4c3)cnc2c1N | > 125 | 32.5 | – | – | – |
| COC(=O)c1sc2cc(-c3ccc(C(F)(F)F)cc3)cnc2c1N | > 125 | > 125 | – | – | – |
| COC(=O)c1sc2cc(-c3cnc(OC)nc3OC)cnc2c1N | 23.8 | 4.4 | – | – | – |
| COC(=O)c1sc2cc(-c3ccc(C(C)=O)cc3)cnc2c1N | > 125 | > 125 | – | – | – |
| COC(=O)c1sc2cc(-c3cncc4ccccc34)cnc2c1N | > 125 | 25.4 | – | – | – |
| COC(=O)c1sc2cc(-c3ccc(-c4cccs4)s3)cnc2c1N | 70.6 | 106 | – | – | – |
| COC(=O)c1sc2cc(-c3ccc(OC)nc3)cnc2c1N | > 125 | > 125 | – | – | – |
| COC(=O)c1sc2cc(-c3ccoc3)cnc2c1N | > 125 | > 125 | – | – | – |
| COC(=O)c1sc2cc(-c3ccc4c(ccn4C)c3)cnc2c1N | 117 | 106 | – | – | – |
| COC(=O)c1sc2cc(-c3cnn(C)c3)cnc2c1N | > 125 | > 125 | – | – | – |
| COC(=O)c1sc2cc(-c3ccc4ncccc4c3)cnc2c1N | > 125 | 14.1 | – | – | – |
| COC(=O)c1sc2cc(-c3ccc4ccccc4c3)cnc2c1N | > 125 | 102 | – | – | – |
| COC(=O)c1sc2cc(-c3cc(OC)cc(OC)c3)cnc2c1N | 125 | 25 | – | – | – |
| COC(=O)c1sc2cc(-c3ccsc3)cnc2c1N | > 125 | 25.2 | – | – | – |
| Cc1c2ccncc2c(C)c2c1[nH]c1ccccc12 [ELLIPTECINE] | 2.9 | 3.3 | – | – | – |

More lines, main results first:

| GI50 (HepG2 [2]) [µM] | SMILES | GI50 at 72 h [1] [µM] | Activity (HepG2 [3]) | Activity (HepG2 [4]) | Activity (HepG2 [5]) |
| --- | --- | --- | --- | --- | --- |
| > 125 | COC(=O)c1sc2cc(-c3ccc(F)nc3)cnc2c1N | 47 | – | – | – |
| > 125 | COC(=O)c1sc2cc(C#Cc3ccc(F)cc3)cnc2c1N | > 125 | – | – | – |
| 67.6 | COC(=O)c1sc2cc(C#Cc3ccc(N(C)C)cc3)cnc2c1N | > 125 | – | – | – |
| > 125 | COC(=O)c1sc2cc(C#Cc3ccccc3N)cnc2c1N | > 125 | – | – | – |
| > 125 | COC(=O)c1sc2cc(C#Cc3ccccc3OC)cnc2c1N | 121 | – | – | – |
| 25.9 | COC(=O)c1sc2cc(C#Cc3ccc(N)cc3)cnc2c1N | > 125 | – | – | – |
| > 125 | COC(=O)c1sc2cc(C#Cc3cccc(OC)c3)cnc2c1N | > 125 | – | – | – |
| > 125 | COC(=O)c1sc2cc(C#Cc3ccc(OC)cc3)cnc2c1N | 76.5 | – | – | – |
| 30 | COC(=O)c1sc2cc(C#Cc3ccsc3)cnc2c1N | 30.7 | – | – | – |
| > 125 | COC(=O)c1sc2cc(-c3cccnc3)cnc2c1N | > 125 | – | – | – |
| 21.7 | COC(=O)c1sc2cc(-c3ccccc3N)cnc2c1N | > 125 | – | – | – |
| > 125 | COC(=O)c1sc2cc(C#Cc3ccccc3F)cnc2c1N | > 125 | – | – | – |
| 75.7 | COC(=O)c1sc2cc(C#Cc3ccccn3)cnc2c1N | 56.9 | – | – | – |
| > 125 | COC(=O)c1sc2cc(-c3ccc(C#N)cc3)cnc2c1N | 96.7 | – | – | – |
| > 125 | COC(=O)c1sc2cc(C#Cc3cccnc3)cnc2c1N | > 125 | – | – | – |
| > 125 | COC(=O)c1sc2cc(-c3ccc(OC)cc3)cnc2c1N | > 125 | – | – | – |
| 1.2 | COC(=O)c1sc2cc(C#Cc3cccc(N)c3)cnc2c1N | > 125 | Active | Active | Active |
| > 125 | COC(=O)c1sc2cc(C#Cc3ccccc3)cnc2c1N | 95.7 | – | – | – |
